What was measured:
Experiment in all cases: relative viability (nuclei count vs DMSO), 5 days (fraction); higher = more cells survive
201T = tested on: 201T
Procedure, shortened: (§1)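 Medians of duplicate plates are given as relative viability. That measure is the nuclei count in treated wells divided by the count in vehicle wells. Counts were taken on 4× images of lung cancer cell lines in 1536-well plates, 5 days after pin-tool dosing the day after seeding with one drug alone or a fixed anchor-drug dose plus five library-drug doses (not always all listed) in √10 steps.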

A-427 = tested on: A-427
Procedure, shortened: as §1

BEN = tested on: BEN
Procedure, shortened: as §1

COR-L 105 = tested on: COR-L 105
Procedure, shortened: as §1

COR-L23 = tested on: COR-L23
Procedure, shortened: as §1

EKVX = tested on: EKVX
Procedure, shortened: as §1

HARA = tested on: HARA
Procedure, shortened: as §1

HCC-15 = tested on: HCC-15
Procedure, shortened: as §1

HCC-44 = tested on: HCC-44
Procedure, shortened: as §1

HCC-827 = tested on: HCC-827
Procedure, shortened: as §1

LK-2 = tested on: LK-2
Procedure, shortened: as §1

NCI-H1437 = tested on: NCI-H1437
Procedure, shortened: as §1

NCI-H1666 = tested on: NCI-H1666
Procedure, shortened: as §1

NCI-H1792 = tested on: NCI-H1792
Procedure, shortened: as §1

NCI-H1975 = tested on: NCI-H1975
Procedure, shortened: as §1

NCI-H23 = tested on: NCI-H23
Procedure, shortened: as §1

NCI-H358 = tested on: NCI-H358
Procedure, shortened: as §1

NCI-H441 = tested on: NCI-H441
Procedure, shortened: as §1

NCI-H596 = tested on: NCI-H596
Procedure, shortened: as §1

NCI-H650 = tested on: NCI-H650
Procedure, shortened: as §1

NCI-H838 = tested on: NCI-H838
Procedure, shortened: as §1

SK-MES-1 = tested on: SK-MES-1
Procedure, shortened: as §1

SW 900 = tested on: SW 900
Procedure, shortened: as §1

Structure (SMILES): NC(=O)Nc1cc(-c2cccc(F)c2)sc1C(=O)N[C@H]1CCCNC1 [AZD7762] + COc1cccc2cc(-c3nc([C@H]4CC[C@H](C(=O)O)CC4)n4ncnc(N)c34)[nH]c12 [OSI-027] (partner 0.5 µM)
- relative viability (201T; first compound 0.01 µM): 0.795
- relative viability (201T; first compound 0.03162 µM): 0.779
- relative viability (201T; first compound 0.1 µM): 0.703
- relative viability (201T; first compound 0.3162 µM): 0.423
- relative viability (201T; first compound 1 µM): 0.254
- relative viability (A-427; first compound 0.01 µM): 0.484
- relative viability (A-427; first compound 0.03162 µM): 0.498
- relative viability (A-427; first compound 0.1 µM): 0.343
- relative viability (A-427; first compound 0.3162 µM): 0.353
- relative viability (A-427; first compound 1 µM): 0.224
- relative viability (BEN; first compound 0.01 µM): 0.284
- relative viability (BEN; first compound 0.03162 µM): 0.297
- relative viability (BEN; first compound 0.1 µM): 0.305
- relative viability (BEN; first compound 0.3162 µM): 0.287
- relative viability (BEN; first compound 1 µM): 0.246
- relative viability (COR-L 105; first compound 0.01 µM): 0.636
- relative viability (COR-L 105; first compound 0.03162 µM): 0.821
- relative viability (COR-L 105; first compound 0.1 µM): 0.543
- relative viability (COR-L 105; first compound 0.3162 µM): 0.472
- relative viability (COR-L 105; first compound 1 µM): 0.406
- relative viability (COR-L23; first compound 0.01 µM): 0.866
- relative viability (COR-L23; first compound 0.03162 µM): 0.866
- relative viability (COR-L23; first compound 0.1 µM): 0.758
- relative viability (COR-L23; first compound 0.3162 µM): 0.711
- relative viability (COR-L23; first compound 1 µM): 0.285
- relative viability (EKVX; first compound 0.01 µM): 0.726
- relative viability (EKVX; first compound 0.03162 µM): 0.75
- relative viability (EKVX; first compound 0.1 µM): 0.653
- relative viability (EKVX; first compound 0.3162 µM): 0.604
- relative viability (EKVX; first compound 1 µM): 0.628
- relative viability (HARA; first compound 0.01 µM): 0.506
- relative viability (HARA; first compound 0.03162 µM): 0.609
- relative viability (HARA; first compound 0.1 µM): 0.564
- relative viability (HARA; first compound 0.3162 µM): 0.59
- relative viability (HARA; first compound 1 µM): 0.16
- relative viability (HCC-15; first compound 0.01 µM): 0.664
- relative viability (HCC-15; first compound 0.03162 µM): 0.702
- relative viability (HCC-15; first compound 0.1 µM): 0.72
- relative viability (HCC-15; first compound 0.3162 µM): 0.766
- relative viability (HCC-15; first compound 1 µM): 0.64
- relative viability (HCC-44; first compound 0.01 µM): 0.718
- relative viability (HCC-44; first compound 0.03162 µM): 0.579
- relative viability (HCC-44; first compound 0.1 µM): 0.712
- relative viability (HCC-44; first compound 0.3162 µM): 0.65
- relative viability (HCC-44; first compound 1 µM): 0.491
- relative viability (HCC-827; first compound 0.01 µM): 0.787
- relative viability (HCC-827; first compound 0.03162 µM): 0.802
- relative viability (HCC-827; first compound 0.1 µM): 0.863
- relative viability (HCC-827; first compound 0.3162 µM): 0.875
- relative viability (HCC-827; first compound 1 µM): 0.537
- relative viability (LK-2; first compound 0.01 µM): 0.192
- relative viability (LK-2; first compound 0.03162 µM): 0.228
- relative viability (LK-2; first compound 0.1 µM): 0.213
- relative viability (LK-2; first compound 0.3162 µM): 0.186
- relative viability (LK-2; first compound 1 µM): 0.165
- relative viability (NCI-H1437; first compound 0.01 µM): 0.888
- relative viability (NCI-H1437; first compound 0.03162 µM): 0.833
- relative viability (NCI-H1437; first compound 0.1 µM): 0.974
- relative viability (NCI-H1437; first compound 0.3162 µM): 0.87
- relative viability (NCI-H1437; first compound 1 µM): 0.695
- relative viability (NCI-H1666; first compound 0.01 µM): 0.981
- relative viability (NCI-H1666; first compound 0.03162 µM): 0.921
- relative viability (NCI-H1666; first compound 0.1 µM): 1.03
- relative viability (NCI-H1666; first compound 0.3162 µM): 0.858
- relative viability (NCI-H1666; first compound 1 µM): 0.771
- relative viability (NCI-H1792; first compound 0.01 µM): 0.832
- relative viability (NCI-H1792; first compound 0.03162 µM): 0.848
- relative viability (NCI-H1792; first compound 0.1 µM): 0.811
- relative viability (NCI-H1792; first compound 0.3162 µM): 0.867
- relative viability (NCI-H1792; first compound 1 µM): 0.965
- relative viability (NCI-H1975; first compound 0.01 µM): 0.687
- relative viability (NCI-H1975; first compound 0.03162 µM): 0.73
- relative viability (NCI-H1975; first compound 0.1 µM): 0.637
- relative viability (NCI-H1975; first compound 0.3162 µM): 0.615
- relative viability (NCI-H1975; first compound 1 µM): 0.397
- relative viability (NCI-H23; first compound 0.01 µM): 0.556
- relative viability (NCI-H23; first compound 0.03162 µM): 0.567
- relative viability (NCI-H23; first compound 0.1 µM): 0.652
- relative viability (NCI-H23; first compound 0.3162 µM): 0.566
- relative viability (NCI-H23; first compound 1 µM): 0.288
- relative viability (NCI-H358; first compound 0.01 µM): 0.956
- relative viability (NCI-H358; first compound 0.03162 µM): 0.838
- relative viability (NCI-H358; first compound 0.1 µM): 0.839
- relative viability (NCI-H358; first compound 0.3162 µM): 0.75
- relative viability (NCI-H358; first compound 1 µM): 0.461
- relative viability (NCI-H441; first compound 0.01 µM): 0.765
- relative viability (NCI-H441; first compound 0.03162 µM): 0.819
- relative viability (NCI-H441; first compound 0.1 µM): 0.944
- relative viability (NCI-H441; first compound 0.3162 µM): 0.799
- relative viability (NCI-H441; first compound 1 µM): 0.59
- relative viability (NCI-H596; first compound 0.01 µM): 0.702
- relative viability (NCI-H596; first compound 0.03162 µM): 0.711
- relative viability (NCI-H596; first compound 0.1 µM): 0.849
- relative viability (NCI-H596; first compound 0.3162 µM): 0.673
- relative viability (NCI-H596; first compound 1 µM): 0.686
- relative viability (NCI-H650; first compound 0.01 µM): 0.549
- relative viability (NCI-H650; first compound 0.03162 µM): 0.542
- relative viability (NCI-H650; first compound 0.1 µM): 0.537
- relative viability (NCI-H650; first compound 0.3162 µM): 0.509
- relative viability (NCI-H650; first compound 1 µM): 0.614
- relative viability (NCI-H838; first compound 0.01 µM): 0.429
- relative viability (NCI-H838; first compound 0.03162 µM): 0.374
- relative viability (NCI-H838; first compound 0.1 µM): 0.415
- relative viability (NCI-H838; first compound 0.3162 µM): 0.413
- relative viability (NCI-H838; first compound 1 µM): 0.297
- relative viability (SK-MES-1; first compound 0.01 µM): 0.672
- relative viability (SK-MES-1; first compound 0.03162 µM): 0.571
- relative viability (SK-MES-1; first compound 0.1 µM): 0.52
- relative viability (SK-MES-1; first compound 0.3162 µM): 0.173
- relative viability (SK-MES-1; first compound 1 µM): 0.17
- relative viability (SW 900; first compound 0.01 µM): 0.609
- relative viability (SW 900; first compound 0.03162 µM): 0.623
- relative viability (SW 900; first compound 0.1 µM): 0.539
- relative viability (SW 900; first compound 0.3162 µM): 0.501
- relative viability (SW 900; first compound 1 µM): 0.263

Source: the supplement of paper PMC10307832
